# Data from patent US20210330611A1, “THERAPY FOR NEUROLOGICAL DISEASES/DISORDERS” (priority 2020, published 2021).
# Where “and” joins values, the source holds several entries; their conditions need not be identical. Identical values can stand only once. Like-named read-outs stand apart in the source and are kept apart here. Where no end group is shown, it is not given here.
# Assays:
# primary rat microglia [1] = test system: primary rat microglia
# [2] = test system: LPS-induced microglia activation; assay: Image-based assay of LPS-induced microglia activation (HTS and dose response); assay type: cell-based, rat; conditions: for inhibition at 10 µM: Rattus norvegicus, Microglia, read-out: LPS % inhibition
# [3] = test system: fibrin-induced microglia activation; assay: Image-based assay of fibrin-induced microglia activation (HTS and dose response); assay type: cell-based, rat; conditions: for Fibrin % inhibition / inhibition at 10 µM: primary microglia HTS; for inhibition at 10 µM: Rattus norvegicus, Microglia, read-out: Fibrin % inhibition
# [4] = test system: fibrin- and LPS-induced microglia activation; assay: cells; assay type: cell-based, rat; conditions: for Hit: HTS hit classification
# primary rat microglia [5] = assay: Cell toxicity (dead cells, size <150 μm2) in LPS assay; conditions: for LPS % cell toxicity: primary microglia HTS; for IC50: read-out: Cell Toxicity IC50 (uM) [LPS assay]
# primary rat microglia [6] = conditions: rat
# primary rat microglia [7] = assay: Cell toxicity (dead cells, size <150 μm2) in coated fibrin (cFib) assay; conditions: for Fibrin % cell toxicity: primary microglia HTS; for IC50: read-out: Cell Toxicity IC50 (uM) [cFib assay];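 on Fibrin % cell toxicity: share of dead cells sized under 150 µm2 at 10 µM in fibrin-stimulated microglia HTS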
# [8] = primary microglia HTS, LPS stimulation, increased cell size (>800 μm^2) as marker of activation
# [9] = fibrin stimulation, increased cell size (>800 μm^2) as marker of activation
# [10] = classification by fibrin and LPS inhibition, HTS at 10 μM
# [11] = LPS stimulation, decreased size (<150 μm^2) as marker of toxicity
# [12] = 48 h, primary microglia HTS, LPS stimulation, increased cell size (>800 μm^2) as marker of activation
# [13] = primary microglia HTS, LPS stimulation, compounds at 10 μM
# [14] = quadrant by fibrin and LPS inhibition in HTS of 1907 compounds
# [15] = fibrin stimulation, compounds at 10 μM
# [16] = fibrin stimulation, decreased size (<150 μm^2) as marker of toxicity
# [17] = Table 1, dose response 0.001-20 μM, triplicates, primary rat microglia, 48 h, read-out: LPS IC50
# [18] = dose response, LPS-induced microglia activation, read-out: LPS IC50
# [19] = HTS of 1907 compounds, quadrant by fibrin and LPS inhibition
# [20] = Table 1, dose response 0.001-20 μM, triplicates, primary rat microglia, 48 h, read-out: Fibrin IC50
# [21] = dose response, fibrin-induced microglia activation, read-out: Fibrin IC50
# [22] = 10 μM, LPS assay, cell size <150 μm^2 as marker of toxicity
# [23] = primary microglia HTS, 10 μM, LPS-stimulated, cell size >800 μm^2 as marker of activation
# [24] = 10 μM, fibrin-stimulated, cell size >800 μm^2 as marker of activation
# [25] = 10 μM, fibrin assay, cell size <150 μm^2 as marker of toxicity
compound,measurement,setting,value
CN(Cc1cnc2nc(N)nc(N)c2n1)c1ccc(C(=O)N[C@@H](CCC(=O)O)C(=O)O)cc1 (racemic) [Methotrexate(+/−)],Fibrin % cell toxicity,primary rat microglia [1],0%
same,LPS % inhibition,[2]; [8],0%
same,Fibrin % inhibition,[3]; [9],0%
Nc1nc(Cl)nc2c1ncn2[C@@H]1O[C@H](CO)[C@@H](O)[C@@H]1F [Clofarabine],Fibrin % cell toxicity,primary rat microglia [1]; rat,1%
same,LPS % inhibition,"[2]; primary HTS, 10 μM, LPS-stimulated primary microglia",−2% and 8%
same,Quadrant (FIG. 5b),"[4]; primary HTS, 10 μM",Q4
CC(=O)O[C@]1(C(C)=O)CC[C@H]2[C@@H]3C=C(Cl)C4=CC(=O)[C@@H]5C[C@@H]5[C@]4(C)[C@H]3CC[C@@]21C [Cyproterone Acetate],Fibrin % cell toxicity,primary rat microglia [1]; rat,1%
same,LPS % inhibition,"[2]; primary microglia HTS, LPS stimulation, compounds at 10 μM, 10 µM",12% and 3%
same,Quadrant (FIG. 5b),[4]; [10],Q4
C#C[C@]1(O)CC[C@H]2[C@@H]3CCC4=Cc5oncc5C[C@]4(C)[C@H]3CC[C@@]21C [Danazol],LPS % cell toxicity,primary rat microglia [5]; [11],14%
same,inhibition at 10 µM,[2]; [12],99%
same,inhibition at 10 µM,[2]; [13],5%
same,Quadrant (FIG. 5b),[4]; [10],Q4
same,Quadrant (FIG. 5b),[4]; [14],Q2
same,inhibition at 10 µM,[3]; [15],-14%
same,inhibition at 10 µM,[3]; [9],105%
same,LPS % cell toxicity,primary rat microglia [6],0%
same,Fibrin % cell toxicity,"primary rat microglia [7]; fibrin assay, dead cells (size <150 μm2), compounds at 10 μM",1%
same,Fibrin % cell toxicity,primary rat microglia [7]; [16],28%
O=C(O)CN(CCN(CC(=O)O)CC(=O)O)CC(=O)O [Edetic Acid],Fibrin % cell toxicity,primary rat microglia [1]; rat,0%
same,Quadrant (FIG. 5b),[4],Q4
C[C@]12CC[C@@H]3c4ccc(O)cc4CC[C@H]3[C@@H]1CCC2=O [Estrone],LPS % cell toxicity,primary rat microglia [5]; [11],25%
same,inhibition at 10 µM,[2]; [12],106%
same,inhibition at 10 µM,[2]; [13],16%
same,Quadrant (FIG. 5b),[4]; [10],Q4
same,Quadrant (FIG. 5b),[4]; [14],Q2
same,inhibition at 10 µM,[3]; [15],35%
same,inhibition at 10 µM,[3]; [9],106%
same,LPS % cell toxicity,primary rat microglia [6],0%
O=c1[nH]c(=O)n([C@H]2C[C@H](O)[C@@H](CO)O2)cc1I [Idoxuridine],Fibrin % cell toxicity,primary rat microglia [1]; rat,1%
same,Quadrant (FIG. 5b),[4]; [14],Q4
CCC(C)n1ncn(-c2ccc(N3CCN(c4ccc(OCC5COC(Cn6cncn6)(c6ccc(Cl)cc6Cl)O5)cc4)CC3)cc2)c1=O (stereo not shown) [Itraconazole],Fibrin % cell toxicity,primary rat microglia [1]; rat,1%
same,Quadrant (FIG. 5b),[4]; [14],Q4
CCCCCCCCCCC[C@@H](C[C@@H]1OC(=O)[C@H]1CCCCCC)OC(=O)[C@H](CC(C)C)NC=O [Orlistat],Fibrin % cell toxicity,primary rat microglia [1]; rat,1%
same,Quadrant (FIG. 5b),[4]; [14],Q4
same,inhibition at 10 µM,[3]; [9],17%
Clc1ccc(C(Cn2ccnc2)OCc2ccsc2Cl)c(Cl)c1 (stereo not shown) [Tioconazole],Fibrin % cell toxicity,primary rat microglia [1]; rat,1%
same,LPS % inhibition,[2]; 10 µM,8%
same,inhibition at 10 µM,[2],12%
same,Quadrant (FIG. 5b),[4],Q4
Monensin [reference compound],LPS % cell toxicity,primary rat microglia [5]; [11],6%
same,IC50,primary rat microglia [5]; LPS assay,2 µM
same,IC50,"primary rat microglia [5]; LPS assay, Table 6",2 µM
same,IC50,primary rat microglia [5]; Table 3,2 µM
same,LPS_HS,"[2]; Hill slope of LPS dose response, Table 7",−0.48
same,IC50,"[2]; LPS-induced microglia activation, dose response, read-out: LPS IC50 (uM) (Suppl. Table 7)",0.2 µM
same,IC50,[2]; [17],0.2 µM
same,IC50,"[2]; Table 3, read-out: LPS IC50 (uM) (Suppl. Table 7)",0.2 µM
same,IC50,"[2]; Table 6, read-out: LPS IC50 (uM) (Suppl. Table 7)",0.2 µM
same,LPS specificity,[2]; Table 7,5.4
same,IC50,"[2]; Table 7, read-out: LPS_IC50",0.212 µM
same,IC50,[2]; [18],0.2 µM
same,LPS % inhibition,[2]; [8],117%
same,Hit,[4],HIT (Hits were defined as molecules that exhibited greater than 50% inhibition of either fibrin or LPS activation)
same,Quadrant (FIG. 5b),[4]; [19],Q2
same,Quadrant (FIG. 5b),"[4]; Table 1, screen at 10 μM",Q2
same,Cherry-picked Hit (Suppl. Table 7),[4]; Table 3,HIT (Hits were defined as molecules that exhibited greater than 50% inhibition of either fibrin or LPS activation)
same,Quadrant (FIG. 5b),"[4]; Table 3, screen at 10 μM",Q2
same,Activity,"[4]; Table 7, fib = fibrin, LPS, tox = toxicity",fib/LPS
same,Cherry-picked Hit (Suppl. Table 7),[4]; hit classification in microglia HTS,HIT (Hits were defined as molecules that exhibited greater than 50% inhibition of either fibrin or LPS activation)
same,Cherry-picked Hit (Suppl. Table 7),"[4]; microglia HTS, Table 6",HIT (Hits were defined as molecules that exhibited greater than 50% inhibition of either fibrin or LPS activation)
same,Quadrant (FIG. 5b),"[4]; microglia HTS, Table 6",Q2
same,Quadrant (FIG. 5b),[4]; [14],Q2
same,Fibrin Selectivity,[3],49
same,Fibrin Selectivity (LOG10),[3],1.69
same,fib_HS,"[3]; Hill slope of fibrin dose response, Table 7",−3.80
same,IC50,[3]; [20],0.004 µM
same,IC50,"[3]; Table 3, read-out: Fibrin IC50 (uM) (Suppl. Table 7)",0.004 µM
same,IC50,"[3]; Table 6, read-out: Fibrin IC50 (uM) (Suppl. Table 7)",0.004 µM
same,fib specificity,[3]; Table 7,0.2
same,IC50,"[3]; Table 7, read-out: fib_IC50",1.14 µM
same,IC50,[3]; [21],0.004 µM
same,Fibrin Selectivity (LOG10),"[3]; fibrin vs LPS, LOG10, Table 6",1.69
same,Fibrin Selectivity,"[3]; fibrin vs LPS, Table 6",49
same,IC50,"[3]; fibrin-induced microglia activation, dose response, read-out: Fibrin IC50 (uM) (Suppl. Table 7)",0.004 µM
same,Fibrin % inhibition,[3]; [9],101%
same,Fibrin % cell toxicity,primary rat microglia [7]; [16],3%
same,IC50,primary rat microglia [7]; Table 3,> 20 µM
same,IC50,primary rat microglia [7]; cFib assay,> 20 µM
same,IC50,"primary rat microglia [7]; cFib assay, Table 6",> 20 µM
Nonoxynol-9,LPS % cell toxicity,primary rat microglia [5]; [11],0%
same,LPS % inhibition,[2]; [8],23%
same,Quadrant (FIG. 5b),[4]; [14],Q4
same,Fibrin % inhibition,[3]; [9],−7%
same,Fibrin % cell toxicity,primary rat microglia [7]; [16],0%
Polymyxin B Sulfate,LPS % cell toxicity,primary rat microglia [5]; [11],2%
same,LPS % inhibition,[2]; [8],76%
same,Quadrant (FIG. 5b),[4]; [14],Q1
same,Fibrin % inhibition,[3]; [9],−25%
same,Fibrin % cell toxicity,primary rat microglia [7]; [16],1%
RKDVY [Thymopentin],LPS % cell toxicity,primary rat microglia [5]; [22],0%
same,LPS % inhibition,[2]; [23],20%
same,Quadrant (FIG. 5b),[4]; [19],Q4
same,Fibrin % inhibition,[3]; [24],−20%
same,Fibrin % cell toxicity,primary rat microglia [7]; [25],1%
Sucralfate,LPS % cell toxicity,primary rat microglia [5]; [22],0%
same,LPS % inhibition,[2]; [23],22%
same,Quadrant (FIG. 5b),[4]; [19],Q4
same,Fibrin % inhibition,[3]; [24],−35%
same,Fibrin % cell toxicity,primary rat microglia [7]; [25],1%
Tyloxapol,LPS % cell toxicity,primary rat microglia [5]; [22],0%
same,LPS % inhibition,[2]; [23],17%
same,Quadrant (FIG. 5b),[4]; [19],Q4
same,Fibrin % inhibition,[3]; [24],−1%
same,Fibrin % cell toxicity,primary rat microglia [7]; [25],1%
Tyrothricin [reference compound],LPS % cell toxicity,primary rat microglia [5]; [11],2%
same,IC50,[2]; [17],0.5 µM
same,IC50,[2]; [18],0.5 µM
same,LPS % inhibition,[2]; [8],102%
same,Hit,[4],HIT (Hits were defined as molecules that exhibited greater than 50% inhibition of either fibrin or LPS activation)
same,Quadrant (FIG. 5b),"[4]; Table 1, screen at 10 μM",Q2
same,Quadrant (FIG. 5b),[4]; [14],Q2
same,IC50,[3]; [20],3 µM
same,IC50,[3]; [21],3 µM
same,Fibrin % inhibition,[3]; [9],89%
same,Fibrin % cell toxicity,primary rat microglia [7]; [16],2%
Viomycin Sulfate,LPS % cell toxicity,primary rat microglia [5]; [22],0%
same,LPS % inhibition,[2]; [23],19%
same,Quadrant (FIG. 5b),[4]; [19],Q4
same,Fibrin % inhibition,[3]; [24],−7%
same,Fibrin % cell toxicity,primary rat microglia [7]; [25],0%
